Converted amounts (≈) assume the structure as drawn.
Key:
[1] = molecular target: T1, C-C chemokine receptor type 1 (Homo sapiens, UniProt P32246); experiment: Inhibition of CCL3 binding to C-C chemokine receptor type 1
T1 sequence (P32246 whole entry): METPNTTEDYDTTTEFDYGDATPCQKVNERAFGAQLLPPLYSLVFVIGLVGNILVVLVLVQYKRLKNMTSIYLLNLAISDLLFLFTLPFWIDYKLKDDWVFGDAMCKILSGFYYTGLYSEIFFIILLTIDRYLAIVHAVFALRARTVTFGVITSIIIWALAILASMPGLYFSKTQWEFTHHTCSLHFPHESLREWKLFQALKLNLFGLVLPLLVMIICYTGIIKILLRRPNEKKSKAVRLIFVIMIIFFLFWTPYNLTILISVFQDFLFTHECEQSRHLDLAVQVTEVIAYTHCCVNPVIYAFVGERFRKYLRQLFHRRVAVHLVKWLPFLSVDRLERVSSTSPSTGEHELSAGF

Homo sapiens = organism: Homo sapiens; settings: Liver, Microsome
Description: In vitro oxidative metabolic stability measured by the rate of drug consumption in human liver microsomes as intrinsic clearance values

[2] = Plasma clearance of compound was determined in dog
[3] = Elimination Half-life of compound was determined in dog; settings: in vivo
[4] = Oral bioavailability in monkey; settings: cercopithecidae, in vivo
[5] = Plasma clearance of compound was determined in monkey; settings: cercopithecidae
[6] = Volume of distribution of compound was determined in monkey; settings: cercopithecidae, in vivo
[7] = Volume of distribution of compound was determined in dog; settings: in vivo
[8] = Aqueous solubility of compound was determined

CC(C)(F)CC[C@H](C[C@H](O)[C@H](Cc1ccccc1)NC(=O)c1cnc2ccccc2n1)C(N)=O showed an IC50 [1] of 9 nM.
CCNC(=O)C(CCC(C)(C)F)C[C@H](O)[C@H](Cc1ccccc1)NC(=O)c1cnc2ccccc2n1 (stereo partly specified) gave an IC50 [1] of 75 nM.
Compound NC(=O)C(C[C@H](O)[C@H](Cc1ccccc1)NC(=O)c1cnc2ccccc2n1)C1CCOCC1 (stereo partly specified) has an IC50 [1] of 3460 nM.
NC(=O)C(C[C@H](O)[C@H](Cc1ccccc1)NC(=O)c1cnc2ccccc2n1)C1(O)CCC(F)(F)CC1 (stereo partly specified) showed an IC50 [1] of 56 nM and a CL (mL.min-1.kg-1) (Homo sapiens) of 6.4.
For CC(C)(F)CCC(C[C@H](O)[C@H](Cc1ccccc1)NC(=O)c1cnc2ccccc2n1)C(=O)NO (stereo partly specified), the IC50 [1] was 27 nM.
Compound NC(=O)C(C[C@H](O)[C@H](Cc1ccccc1)NC(=O)c1cnc2ccccc2n1)C1(O)CCCCC1 (stereo partly specified) has an IC50 [1] of 54 nM and a CL (mL.min-1.kg-1) (Homo sapiens) of 47.7.
CC(C)(F)CCC(C[C@H](O)[C@H](Cc1ccccc1)NC(=O)c1cnc2ccccc2n1)C(=O)NN (stereo partly specified) showed an IC50 [1] of 7 nM and a CL (mL.min-1.kg-1) (Homo sapiens) of 32.7.
NC(=O)C(C[C@H](O)[C@H](Cc1ccccc1)NC(=O)c1cnc2ccccc2n1)C1CCC(F)(F)CC1 (stereo partly specified) showed an IC50 [1] of 20 nM.
In the case of CC(C)(F)CCC(C[C@H](O)[C@H](Cc1ccccc1)NC(=O)c1cnc2ccccc2n1)C(=O)NCc1ccccc1 (stereo partly specified), the IC50 [1] is reported as 850 nM.
CC(C)(O)CC[C@H](C[C@H](O)[C@H](Cc1ccccc1)NC(=O)c1cnc2ccccc2n1)C(N)=O gave an IC50 [1] of 580 nM and a CL (mL.min-1.kg-1) (Homo sapiens) of 4.9.
NC(=O)C(C[C@H](O)[C@H](Cc1ccccc1)NC(=O)c1cnc2ccccc2n1)C1CCCCC1 (stereo partly specified) gave an IC50 [1] of 8 nM and a CL (mL.min-1.kg-1) (Homo sapiens) of 242.
For CN1CCN(C(=O)C(CCC(C)(C)F)C[C@H](O)[C@H](Cc2ccccc2)NC(=O)c2cnc3ccccc3n2)CC1 (stereo partly specified), the IC50 [1] was 5600 nM and the CL (mL.min-1.kg-1) (Homo sapiens) was 647.
CC(C)(O)CCC(C[C@H](O)[C@H](Cc1ccccc1F)NC(=O)c1cnc2ccccc2n1)C(N)=O (stereo partly specified) gave an IC50 [1] of 52 nM and a CL (mL.min-1.kg-1) (Homo sapiens) of 16.5.
CC(C)(F)CCC(C[C@H](O)[C@H](Cc1ccccc1)NC(=O)c1cnc2ccccc2n1)C(=O)N1CCCC1 (stereo partly specified) showed an IC50 [1] of 2320 nM.
For O=C(N[C@@H](Cc1ccccc1)[C@@H](O)CC(C(=O)NO)C1CCC(F)(F)CC1)c1cnc2ccccc2n1 (stereo partly specified), the clearance [2] was 38 mL/min/kg, the half-life [3] was 30 min and the bioavailability [4] was < 1.1%. For the same compound, the clearance [5] was 33 mL/min/kg, the Vd [6] was 1.8 L/kg and the Vd [7] was 1.3 L/kg. It also gave a solubility [8] of 12 µg/mL (≈ 23.4 µM), an IC50 [1] of 7 nM and a CL (mL.min-1.kg-1) (Homo sapiens) of 6.1.
With CC(C)(O)CCC(C[C@H](O)[C@H](Cc1ccc(F)cc1)NC(=O)c1cnc2ccccc2n1)C(N)=O (stereo partly specified) the IC50 [1] was > 25000 nM.

— ChEMBL document CHEMBL1147552, “Novel CCR1 antagonists with improved metabolic stability” (Bioorg Med Chem Lett, 2004)
